# Experimental data taken from ChEMBL document CHEMBL3232845 (Bioorg Med Chem Lett, 2014).
# Tests used:
# [1] = target: RAF proto-oncogene serine/threonine-protein kinase (Homo sapiens) (UniProt P04049); assay: Inhibition of human c-RAF assessed as enzyme activity at 1 uM relative to control; design: scale not given: the % may be the effect or the level left
# [2] = target: Activated CDC42 kinase 1 (Homo sapiens) (UniProt Q07912); assay: Inhibition of human TNK2 assessed as enzyme activity at 1 uM relative to control; design: scale not given: the % may be the effect or the level left
# [3] = target: Calcium/calmodulin-dependent protein kinase type II subunit beta (Homo sapiens) (UniProt Q13554); assay: Inhibition of human CAMK2b assessed as enzyme activity at 1 uM relative to control; design: scale not given: the % may be the effect or the level left
# [4] = target: Insulin-like growth factor 1 receptor (Homo sapiens) (UniProt P08069); assay: Inhibition of human IGF-1R assessed as enzyme activity at 1 uM relative to control; design: scale not given: the % may be the effect or the level left
# Sequence of Insulin-like growth factor 1 receptor (Homo sapiens) (P08069 31-736 limits assumed): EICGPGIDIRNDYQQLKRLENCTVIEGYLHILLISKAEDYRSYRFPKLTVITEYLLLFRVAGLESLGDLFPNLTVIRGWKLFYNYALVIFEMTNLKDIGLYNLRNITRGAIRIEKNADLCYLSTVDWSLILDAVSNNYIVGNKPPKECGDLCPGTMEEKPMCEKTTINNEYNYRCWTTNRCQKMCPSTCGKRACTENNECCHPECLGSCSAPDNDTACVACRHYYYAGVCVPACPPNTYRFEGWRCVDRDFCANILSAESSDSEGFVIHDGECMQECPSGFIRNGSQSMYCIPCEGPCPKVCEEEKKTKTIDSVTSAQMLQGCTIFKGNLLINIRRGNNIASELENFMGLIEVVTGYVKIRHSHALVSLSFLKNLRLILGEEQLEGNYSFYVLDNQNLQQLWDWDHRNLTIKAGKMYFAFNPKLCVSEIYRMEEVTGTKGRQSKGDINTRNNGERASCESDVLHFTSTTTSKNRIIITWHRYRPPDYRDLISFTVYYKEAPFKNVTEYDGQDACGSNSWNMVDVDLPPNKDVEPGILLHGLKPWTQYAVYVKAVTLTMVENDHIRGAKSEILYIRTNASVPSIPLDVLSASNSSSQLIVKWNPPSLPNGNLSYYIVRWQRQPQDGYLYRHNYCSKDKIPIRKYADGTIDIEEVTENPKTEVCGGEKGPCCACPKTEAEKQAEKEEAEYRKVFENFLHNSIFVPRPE
# Sequence of Insulin-like growth factor 1 receptor (Homo sapiens) (P08069 741-1367 limits assumed): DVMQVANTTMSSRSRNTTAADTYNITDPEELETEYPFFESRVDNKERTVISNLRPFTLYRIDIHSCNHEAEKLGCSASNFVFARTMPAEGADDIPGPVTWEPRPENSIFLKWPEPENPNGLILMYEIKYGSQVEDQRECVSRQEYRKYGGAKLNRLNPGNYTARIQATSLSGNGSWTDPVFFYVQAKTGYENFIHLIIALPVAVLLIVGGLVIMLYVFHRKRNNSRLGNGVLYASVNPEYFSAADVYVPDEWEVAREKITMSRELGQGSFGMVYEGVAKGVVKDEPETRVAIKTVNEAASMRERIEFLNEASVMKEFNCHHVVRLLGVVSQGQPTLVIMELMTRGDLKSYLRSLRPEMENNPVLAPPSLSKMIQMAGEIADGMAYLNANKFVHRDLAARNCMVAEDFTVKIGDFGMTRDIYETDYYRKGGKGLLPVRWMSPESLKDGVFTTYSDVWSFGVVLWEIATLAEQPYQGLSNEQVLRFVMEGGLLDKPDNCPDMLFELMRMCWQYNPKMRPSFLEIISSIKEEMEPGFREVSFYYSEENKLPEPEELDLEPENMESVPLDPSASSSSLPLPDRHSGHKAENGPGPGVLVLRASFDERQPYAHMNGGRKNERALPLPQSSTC
# [5] = target: Serine/threonine-protein kinase Chk2 (Homo sapiens) (UniProt O96017); assay: Inhibition of human CHK2 assessed as enzyme activity at 1 uM relative to control; design: scale not given: the % may be the effect or the level left
# [6] = target: Serine/threonine-protein kinase WNK2 (Homo sapiens) (UniProt Q9Y3S1); assay: Inhibition of human WNK2 assessed as enzyme activity at 1 uM relative to control; design: scale not given: the % may be the effect or the level left
# [7] = target: Casein kinase I isoform gamma-2 (Homo sapiens) (UniProt P78368); assay: Inhibition of human CK1gamma2 assessed as enzyme activity at 1 uM relative to control; design: scale not given: the % may be the effect or the level left
# Sequence of Casein kinase I isoform gamma-2 (Homo sapiens) (P78368 whole entry, looked up, canonical isoform): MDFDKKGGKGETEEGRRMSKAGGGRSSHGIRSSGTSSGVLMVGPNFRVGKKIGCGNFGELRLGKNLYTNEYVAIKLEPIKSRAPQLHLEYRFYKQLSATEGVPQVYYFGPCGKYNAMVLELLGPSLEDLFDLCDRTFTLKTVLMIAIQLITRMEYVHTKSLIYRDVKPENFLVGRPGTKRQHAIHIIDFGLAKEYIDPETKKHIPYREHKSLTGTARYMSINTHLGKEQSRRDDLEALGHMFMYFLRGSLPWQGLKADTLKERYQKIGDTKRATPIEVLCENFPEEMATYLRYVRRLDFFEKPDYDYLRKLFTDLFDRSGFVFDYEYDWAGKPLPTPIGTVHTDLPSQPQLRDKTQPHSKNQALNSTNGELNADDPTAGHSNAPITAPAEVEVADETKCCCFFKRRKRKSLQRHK
# [8] = target: Dual specificity protein kinase CLK3 (Homo sapiens) (UniProt P49761); assay: Inhibition of human CLK3 assessed as enzyme activity at 1 uM relative to control; design: scale not given: the % may be the effect or the level left
# [9] = target: Testis-specific serine/threonine-protein kinase 2 (Homo sapiens) (UniProt Q96PF2); assay: Inhibition of human TSSK2 assessed as enzyme activity at 1 uM relative to control; design: scale not given: the % may be the effect or the level left
# Sequence of Testis-specific serine/threonine-protein kinase 2 (Homo sapiens) (Q96PF2 whole entry): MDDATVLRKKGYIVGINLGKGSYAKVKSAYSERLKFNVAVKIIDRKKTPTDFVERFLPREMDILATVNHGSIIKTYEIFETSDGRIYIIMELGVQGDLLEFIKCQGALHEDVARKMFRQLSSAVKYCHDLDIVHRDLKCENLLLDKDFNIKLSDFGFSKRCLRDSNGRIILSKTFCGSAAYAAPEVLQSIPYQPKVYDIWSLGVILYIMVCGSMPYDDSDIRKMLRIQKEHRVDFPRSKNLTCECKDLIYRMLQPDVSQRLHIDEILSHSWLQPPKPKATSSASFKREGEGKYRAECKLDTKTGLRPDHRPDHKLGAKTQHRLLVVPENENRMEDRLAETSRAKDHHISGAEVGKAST
# [10] = target: Serine/threonine-protein kinase PAK 4 (Homo sapiens) (UniProt O96013); assay: Inhibition of human PAK4 assessed as enzyme activity at 1 uM relative to control; design: scale not given: the % may be the effect or the level left
# [11] = target: Aurora kinase A (Homo sapiens) (UniProt O14965); assay: Inhibition of human AURKA assessed as enzyme activity at 1 uM relative to control; design: scale not given: the % may be the effect or the level left
# [12] = target: Ribosomal protein S6 kinase alpha-3 (Homo sapiens) (UniProt P51812); assay: Inhibition of human Rsk2 assessed as enzyme activity at 1 uM relative to control; design: scale not given: the % may be the effect or the level left
# [13] = organism: Sus scrofa; assay: Inhibition of […] pig Abl assessed as enzyme activity at 1 uM relative to control; design: scale not given: the % may be the effect or the level left
# [14] = target: Serine/threonine-protein kinase Chk1 (Homo sapiens) (UniProt O14757); assay: Inhibition of human CHK1 assessed as enzyme activity at 1 uM relative to control; design: scale not given: the % may be the effect or the level left
# Sequence of Serine/threonine-protein kinase Chk1 (Homo sapiens) (O14757 whole entry): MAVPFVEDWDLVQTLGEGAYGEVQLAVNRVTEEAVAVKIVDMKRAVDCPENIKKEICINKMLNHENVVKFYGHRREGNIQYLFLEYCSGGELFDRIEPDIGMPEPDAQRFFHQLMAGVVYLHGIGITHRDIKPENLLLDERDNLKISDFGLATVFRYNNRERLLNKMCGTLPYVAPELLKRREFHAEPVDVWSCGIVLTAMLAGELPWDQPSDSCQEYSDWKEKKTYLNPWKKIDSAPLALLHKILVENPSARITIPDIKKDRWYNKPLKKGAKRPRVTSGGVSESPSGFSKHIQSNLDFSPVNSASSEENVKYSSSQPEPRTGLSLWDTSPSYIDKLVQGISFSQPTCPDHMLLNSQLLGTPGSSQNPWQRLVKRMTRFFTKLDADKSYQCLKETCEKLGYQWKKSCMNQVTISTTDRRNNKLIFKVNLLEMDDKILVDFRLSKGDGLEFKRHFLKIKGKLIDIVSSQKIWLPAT
# [15] = target: Mitogen-activated protein kinase 1 (Homo sapiens) (UniProt P28482); assay: Inhibition of human ERK2 assessed as enzyme activity at 1 uM relative to control; design: scale not given: the % may be the effect or the level left
# Sequence of Mitogen-activated protein kinase 1 (Homo sapiens) (P28482 whole entry): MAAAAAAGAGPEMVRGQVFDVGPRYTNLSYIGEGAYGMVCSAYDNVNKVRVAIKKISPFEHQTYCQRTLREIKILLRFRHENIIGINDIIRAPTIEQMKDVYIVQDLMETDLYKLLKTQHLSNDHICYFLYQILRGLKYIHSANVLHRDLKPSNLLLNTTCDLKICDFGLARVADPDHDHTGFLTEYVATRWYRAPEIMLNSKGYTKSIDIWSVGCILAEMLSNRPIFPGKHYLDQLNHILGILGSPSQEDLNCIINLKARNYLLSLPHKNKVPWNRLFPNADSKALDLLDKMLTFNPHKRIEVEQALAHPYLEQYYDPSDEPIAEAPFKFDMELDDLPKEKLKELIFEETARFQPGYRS
# [16] = target: Tyrosine-protein kinase Yes (Homo sapiens) (UniProt P07947); assay: Inhibition of human Yes assessed as enzyme activity at 1 uM relative to control; design: scale not given: the % may be the effect or the level left
# [17] = target: Ribosomal protein S6 kinase alpha-2 (Homo sapiens) (UniProt Q15349); assay: Inhibition of human Rsk3 assessed as enzyme activity at 1 uM relative to control; design: scale not given: the % may be the effect or the level left
# [18] = target: CDK2/Cyclin A2 (Homo sapiens) (UniProt P24941+P20248); assay: Inhibition of human CDK2/cyclinA assessed as enzyme activity at 1 uM relative to control; format: protein-complex assay; design: scale not given: the % may be the effect or the level left
# [19] = target: Activin receptor type-1B (Homo sapiens) (UniProt P36896); assay: Inhibition of human ALK4 assessed as enzyme activity at 1 uM relative to control; design: scale not given: the % may be the effect or the level left
# [20] = target: Serine/threonine-protein kinase TAO1 (Homo sapiens) (UniProt Q7L7X3); assay: Inhibition of human TAO1 assessed as enzyme activity at 1 uM relative to control; design: scale not given: the % may be the effect or the level left
# [21] = Apparent permeability of the compound from apical to basolateral direction in pig LLC-PK1 cells; format: ADME, cell-based, Sus scrofa
# [22] = target: Macrophage-stimulating protein receptor (Homo sapiens) (UniProt Q04912); assay: Inhibition of human Ron assessed as enzyme activity at 1 uM relative to control; design: scale not given: the % may be the effect or the level left
# [23] = target: Mitogen-activated protein kinase 3 (Homo sapiens) (UniProt P27361); assay: Inhibition of human ERK1 assessed as enzyme activity at 1 uM relative to control; design: scale not given: the % may be the effect or the level left
# [24] = target: Protein kinase C zeta type (Homo sapiens) (UniProt Q05513); assay: Inhibition of human PKCzeta assessed as enzyme activity at 1 uM relative to control; design: scale not given: the % may be the effect or the level left
# [25] = target: Ribosomal protein S6 kinase alpha-4 (Homo sapiens) (UniProt O75676); assay: Inhibition of human MSK2 assessed as enzyme activity at 1 uM relative to control; design: scale not given: the % may be the effect or the level left
# [26] = target: Casein kinase I isoform delta (Homo sapiens) (UniProt P48730); assay: Inhibition of human CK1delta assessed as enzyme activity at 1 uM relative to control; design: scale not given: the % may be the effect or the level left
# Sequence of Casein kinase I isoform delta (Homo sapiens) (P48730 whole entry, looked up, canonical isoform): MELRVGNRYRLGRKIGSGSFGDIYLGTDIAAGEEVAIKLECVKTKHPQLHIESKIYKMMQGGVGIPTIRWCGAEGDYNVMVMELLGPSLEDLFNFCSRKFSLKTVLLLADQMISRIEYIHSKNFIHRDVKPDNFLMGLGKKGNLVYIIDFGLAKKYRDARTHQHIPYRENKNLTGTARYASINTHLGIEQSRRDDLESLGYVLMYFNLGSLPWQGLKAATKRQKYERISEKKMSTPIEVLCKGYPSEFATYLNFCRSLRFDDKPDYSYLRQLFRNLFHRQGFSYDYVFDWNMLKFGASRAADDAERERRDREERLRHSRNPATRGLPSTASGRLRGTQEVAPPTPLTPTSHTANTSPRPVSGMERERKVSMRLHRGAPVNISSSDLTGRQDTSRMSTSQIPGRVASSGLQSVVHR
# [27] = target: Proto-oncogene tyrosine-protein kinase receptor Ret (Homo sapiens) (UniProt P07949); assay: Inhibition of human Ret assessed as enzyme activity at 1 uM relative to control; design: scale not given: the % may be the effect or the level left
# [28] = target: Insulin receptor (Homo sapiens) (UniProt P06213); assay: Inhibition of human IR assessed as enzyme activity at 1 uM relative to control; design: scale not given: the % may be the effect or the level left
# [29] = target: Calcium/calmodulin-dependent protein kinase type II subunit gamma (Homo sapiens) (UniProt Q13555); assay: Inhibition of human CAMK2g assessed as enzyme activity at 1 uM relative to control; design: scale not given: the % may be the effect or the level left
# Sequence of Calcium/calmodulin-dependent protein kinase type II subunit gamma (Homo sapiens) (Q13555 whole entry): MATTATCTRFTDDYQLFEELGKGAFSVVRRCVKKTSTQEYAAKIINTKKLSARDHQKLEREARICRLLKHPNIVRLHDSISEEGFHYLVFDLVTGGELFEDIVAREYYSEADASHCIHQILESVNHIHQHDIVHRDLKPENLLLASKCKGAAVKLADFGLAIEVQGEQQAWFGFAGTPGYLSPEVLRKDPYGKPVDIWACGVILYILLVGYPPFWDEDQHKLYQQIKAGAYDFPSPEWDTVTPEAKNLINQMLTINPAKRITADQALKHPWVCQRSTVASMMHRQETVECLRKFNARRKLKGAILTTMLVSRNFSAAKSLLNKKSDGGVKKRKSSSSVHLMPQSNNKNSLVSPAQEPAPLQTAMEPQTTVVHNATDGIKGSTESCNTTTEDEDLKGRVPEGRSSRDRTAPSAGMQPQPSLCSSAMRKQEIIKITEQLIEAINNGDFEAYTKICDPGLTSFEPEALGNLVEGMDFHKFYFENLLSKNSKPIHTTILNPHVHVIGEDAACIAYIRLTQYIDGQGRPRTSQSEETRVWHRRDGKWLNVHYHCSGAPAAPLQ
# [30] = target: Fibroblast growth factor receptor 4 (Homo sapiens) (UniProt P22455); assay: Inhibition of human FGFR4 assessed as enzyme activity at 1 uM relative to control; design: scale not given: the % may be the effect or the level left
# [31] = target: Serine/threonine-protein kinase NLK (Homo sapiens) (UniProt Q9UBE8); assay: Inhibition of human NLK assessed as enzyme activity at 1 uM relative to control; design: scale not given: the % may be the effect or the level left
# Sequence of Serine/threonine-protein kinase NLK (Homo sapiens) (Q9UBE8 whole entry): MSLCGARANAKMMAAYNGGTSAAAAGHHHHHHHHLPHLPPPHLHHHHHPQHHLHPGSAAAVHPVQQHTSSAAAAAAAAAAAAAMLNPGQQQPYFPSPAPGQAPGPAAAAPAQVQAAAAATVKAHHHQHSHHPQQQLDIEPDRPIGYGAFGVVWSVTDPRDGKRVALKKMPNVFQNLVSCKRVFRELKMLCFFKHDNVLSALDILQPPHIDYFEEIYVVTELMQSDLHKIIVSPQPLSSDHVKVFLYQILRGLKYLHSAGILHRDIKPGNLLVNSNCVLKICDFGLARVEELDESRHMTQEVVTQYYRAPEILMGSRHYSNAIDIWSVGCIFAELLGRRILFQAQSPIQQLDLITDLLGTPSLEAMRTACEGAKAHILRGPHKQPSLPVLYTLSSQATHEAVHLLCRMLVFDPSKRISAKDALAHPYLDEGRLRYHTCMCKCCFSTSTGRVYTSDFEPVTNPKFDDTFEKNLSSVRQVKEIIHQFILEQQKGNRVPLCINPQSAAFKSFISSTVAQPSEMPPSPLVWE
# [32] = target: Muscle, skeletal receptor tyrosine-protein kinase (Homo sapiens) (UniProt O15146); assay: Inhibition of human MuSK assessed as enzyme activity at 1 uM relative to control; design: scale not given: the % may be the effect or the level left
# [33] = target: MAP kinase-activated protein kinase 5 (Homo sapiens) (UniProt Q8IW41); assay: Inhibition of human MAPKAP-K5 assessed as enzyme activity at 1 uM relative to control; design: scale not given: the % may be the effect or the level left
# [34] = target: Protein kinase C theta type (Homo sapiens) (UniProt Q04759); assay: Inhibition of human PKCtheta assessed as enzyme activity at 1 uM relative to control; design: scale not given: the % may be the effect or the level left
# [35] = target: Serine/threonine-protein kinase 17A (Homo sapiens) (UniProt Q9UEE5); assay: Inhibition of human DRAK1 assessed as enzyme activity at 1 uM relative to control; design: scale not given: the % may be the effect or the level left
# Sequence of Serine/threonine-protein kinase 17A (Homo sapiens) (Q9UEE5 whole entry): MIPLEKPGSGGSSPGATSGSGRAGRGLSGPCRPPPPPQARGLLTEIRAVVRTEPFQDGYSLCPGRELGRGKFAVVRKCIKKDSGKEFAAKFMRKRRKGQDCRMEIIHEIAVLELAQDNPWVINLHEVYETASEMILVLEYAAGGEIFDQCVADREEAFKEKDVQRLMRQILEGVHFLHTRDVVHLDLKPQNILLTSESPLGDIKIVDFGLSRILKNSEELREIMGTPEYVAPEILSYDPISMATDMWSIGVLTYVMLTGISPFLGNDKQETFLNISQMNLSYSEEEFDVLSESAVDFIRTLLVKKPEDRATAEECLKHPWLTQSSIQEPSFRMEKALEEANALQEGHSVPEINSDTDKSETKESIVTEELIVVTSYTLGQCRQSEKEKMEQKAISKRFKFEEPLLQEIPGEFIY
# [36] = target: Serine/threonine-protein kinase PLK1 (Homo sapiens) (UniProt P53350); assay: Inhibition of human Plk1 assessed as enzyme activity at 1 uM relative to control; design: scale not given: the % may be the effect or the level left
# [37] = target: Casein kinase II subunit alpha' (Homo sapiens) (UniProt P19784); assay: Inhibition of human CK2alpha2 assessed as enzyme activity at 1 uM relative to control; design: scale not given: the % may be the effect or the level left
# [38] = target: Serine/threonine-protein kinase Nek11 (Homo sapiens) (UniProt Q8NG66); assay: Inhibition of human NEK11 assessed as enzyme activity at 1 uM relative to control; design: scale not given: the % may be the effect or the level left
# [39] = target: Casein kinase I isoform gamma-3 (Homo sapiens) (UniProt Q9Y6M4); assay: Inhibition of human CK1gamma3 assessed as enzyme activity at 1 uM relative to control; design: scale not given: the % may be the effect or the level left
smiles,measurement,setting,value
CCCS(=O)(=O)Nc1cccc(Nc2ccc3ncn(C)c(=O)c3c2)c1C#N,Activity,[1],1.5%
same,Activity,[2],104%
same,Activity,[3],107%
same,Activity,[4],108%
same,Activity,[5],100%
same,Activity,[6],100%
same,Activity,[7],99.5%
same,Activity,[8],96%
same,Activity,[9],118%
same,Activity,[10],92%
same,Activity,[11],97.5%
same,Activity,[12],121%
same,Activity,[13],93%
same,Activity,[14],106%
same,Activity,[15],97%
same,Activity,[16],103%
same,Activity,[17],87%
same,Activity,[18],98.5%
same,Activity,[19],109%
same,Activity,[20],88.5%
same,Papp A→B,[21],> 8 ×10⁻⁶ cm/s
same,Activity,[22],110%
same,Activity,[23],99%
same,Activity,[24],103%
same,Activity,[25],111%
same,Activity,[26],95.5%
same,Activity,[27],98.5%
same,Activity,[28],99.5%
same,Activity,[29],104%
same,Activity,[30],134%
same,Activity,[31],102%
same,Activity,[32],95%
same,Activity,[33],104%
same,Activity,[34],97.5%
same,Activity,[35],120%
same,Activity,[36],90.5%
same,Activity,[37],99%
same,Activity,[38],93.5%
same,Activity,[39],91.5%
